A short description of experiment [1]: Growth rate and feed efficiency of animals when included in the feed rations (statement). The class given is in vivo. As to conditions: in words. The source says:
It is an embodiment of this invention to provide a method for promoting the growth of animals and improving their feed efficiency by administering to them a compound of this invention.
The method of administration of a compound of this invention is to incorporate it in the feed rations intended for the animal at a concentration of about 50-150 g/ton of feed, preferably about 100 g/ton. The animals are permitted to feed at liberty throughout the growth period. There are many specialized feed rations for different species of animals. The compounds of this invention can be used with any of the known rations.

Experiment [2] can be described thus: Growth promotion and improved feed efficiency feeding test (rye diet). The class given is in vivo, male two-day-old broiler-type chicks. As to conditions: for Increase in feed efficiency / Increase in weight: over control group. The procedure:
Growth promotion and improved feed efficiency were determined as follows:
Two groups of male two-day-old broiler-type chicks were placed into Petersime starter batteries and given feed and water ad libitum for the duration of each test. Each group was subdivided into six sub-groups with ten birds in each sub-group, thus providing sixty birds per group. One group received the basal feed ration, as given in Table 1 and served as a control. The other group receives the same ration, but in addition there was included P-2229 at a concentration of 100 g/ton. The basal ration was a rye diet which alters the microflora of the gut in the bird which results in a growth depressant effect. When a growth stimulant or promotant is added to the diet, the effect on the birds performance will be more apparent than if a corn base diet was used.
The test period was thirteen days. Individual live body weights and pen feed efficiencies were taken at 2 and 14 days of age.

In a further experiment the test system is Mycobacterium ranae. Kind of experiment: Minimum inhibitory concentration, Mycobacterium ranae. The class given is cell-based.
Another experiment concerns Aspergillus niger. Kind of experiment: Minimum inhibitory concentration, Aspergillus niger. It counts as cell-based.
The test system of experiment [3] is Pasteurella pseudotuberculosis. Kind of experiment: microbe, parasite or virus in culture. The class given is cell-based. The following applies: Yersinia pseudotuberculosis.
For a further experiment, the system named is Aspergillus fumigatus. Kind of experiment: Minimum inhibitory concentration, Aspergillus fumigatus. The class given is cell-based.
The subject of the next experiment is Shigella dysenteriae. The experiment can be described thus: Minimum inhibitory concentration, Shigella dysenteriae. The class given is cell-based.
A further experiment deals with Escherichia coli. The experiment can be described thus: Minimum inhibitory concentration, Escherichia coli. It counts as cell-based.
The subject of experiment [4] is Streptococcus hemolyticus. Kind of experiment: Minimum inhibitory concentration, Streptococcus hemolyticus. It counts as cell-based. The following applies: Streptococcus pyogenes.
A further experiment relates to Pencillium sp. Kind of experiment: Minimum inhibitory concentration, Pencillium sp. It counts as cell-based.
For a further experiment, the system named is Pseudomonas aeruginosa. The experiment can be described thus: Minimum inhibitory concentration, Pseudomonas aeruginosa. It counts as cell-based.
The test system of the next experiment is Staphylococcus aureus. The experiment can be described thus: Minimum inhibitory concentration, Staphylococcus aureus. It counts as cell-based.
A further experiment relates to Candida albicans. Kind of experiment: Minimum inhibitory concentration, Candida albicans. It counts as cell-based.
Setting [5] is: Table 1, 100 g/ton in feed, 13 days.
Setting [6] is: Table 2, feed consumed to weight gained, control 1.56.
[7] abbreviates: Table 2, test of Example 1 repeated, control 208.77.
Setting [8] is: Table 3, feed consumed to weight gained, control 1.82.
The mark [9] stands for this setting: when tested in feed rations, in words.

Structures are written as SMILES. ≈ marks a conversion by molar mass, not a printed value.

Regarding `CCC(COC(C)=O)(C(OC(C)=O)c1c[n+]([O-])c2ccccc2[n+]1[O-])[N+](=O)[O-]` (stereo not drawn) [Example 12, 2-(1-acetoxy-2-acetoxymethyl-2-nitrobutyl)quinoxaline-1,4-dioxide], in experiment [1] (present-tense example), the feed efficiency result was “increases the feed efficiency” and the growth rate entry is recorded as “improves the growth rate”.
For `CCCC(C(O)c1c[n+]([O-])c2ccccc2[n+]1[O-])[N+](=O)[O-]` (stereo not drawn) [Example 13, 2-(1-hydroxy-2-nitropentyl)quinoxaline-1,4-dioxide], in that order: “increases the feed efficiency” and “improves the growth rate”.
On the same counts, the results for `CCC(C)(C(O)c1c[n+]([O-])c2ccccc2[n+]1[O-])[N+](=O)[O-]` (stereo not drawn) [Example 14, 2-(1-hydroxy-2-methyl-2-nitrobutyl)quinoxaline-1,4-dioxide] are “increases the feed efficiency” and “improves the growth rate”.
For `O=[N+]([O-])C1(C(O)c2c[n+]([O-])c3ccccc3[n+]2[O-])CCCCC1` (stereo not drawn) [Example 15, α-(1-nitrocyclohexyl)-2-quinoxalinemethanol-1,4-dioxide], in that order: “increases the feed efficiency” and “improves the growth rate”.
For the compound `CCCC(C(OC(C)=O)c1c[n+]([O-])c2ccccc2[n+]1[O-])[N+](=O)[O-]` (stereo not drawn) [Example 16, 2-(1-acetoxy-2-nitropentyl)quinoxaline-1,4-dioxide], in experiment [1] (present-tense example), the feed efficiency result is recorded as “increases the feed efficiency” and the growth rate result is “improves the growth rate”.
For `CCC(C)(C(OC(C)=O)c1c[n+]([O-])c2ccccc2[n+]1[O-])[N+](=O)[O-]` (stereo not drawn) [Example 17, 2-(1-acetoxy-2-methyl-2-nitrobutyl)quinoxaline-1,4-dioxide], in that order: “increases the feed efficiency” and “improves the growth rate”.
As for `CC(=O)OC(c1c[n+]([O-])c2ccccc2[n+]1[O-])C1([N+](=O)[O-])CCCCC1` (stereo not drawn) [Example 18], in experiment [1] (present-tense example), the feed efficiency entry is reported as “increases the feed efficiency” and the growth rate result is reported as “improves the growth rate”.
Regarding `COC(=O)C(C(O)c1c[n+]([O-])c2ccccc2[n+]1[O-])[N+](=O)[O-]` (stereo not drawn) [Example P-2229, methyl-α-nitro-β-hydroxy-2-quinoxalinepropionate-1,4-dioxide], the “Body weight gain, av” value in [2] (Table 1, 100 g/ton in feed, 13 days, control 208.73) was found to be 218.75 g. The same compound yielded a feed efficiency in experiment [2] (Table 1, feed consumed to weight gained, control 1.49) of 1.48. In addition, in experiment [2] (setting [5]), the “Increase in feed efficiency” value was found to be 0.7% and the Increase in weight was determined as 4.8%.
Turning to `CC(C(O)c1c[n+]([O-])c2ccccc2[n+]1[O-])[N+](=O)[O-]` (stereo not drawn) [Example P-2230, 2-(1-hydroxy-2-nitropropyl)quinoxaline-1,4-dioxide], in experiment [2] (setting [6]), the feed efficiency amounted to 1.45. For the same compound, in experiment [2] (Table 2), the “Increase in feed efficiency” value is recorded as 7.1 and the Increase in weight was 6.5%. In addition, in experiment [2] (setting [7]), the “Body weight gain, av” value turned out to be 222.37 g.
For `O=[N+]([O-])CC(O)c1c[n+]([O-])c2ccccc2[n+]1[O-]` (stereo not drawn) [Example P-2231, 2-(1-hydroxy-2-nitroethyl)-quinoxaline-1,4-dioxide], in that order: 1.46, 6.4, 6.1% and 221.54 g.
`COC(=O)C(C(OC(C)=O)c1c[n+]([O-])c2ccccc2[n+]1[O-])[N+](=O)[O-]` (stereo not drawn) [Example P-2236]: the “Body weight gain, av” value in experiment [2] (Table 4, control 97.33) is 154.92 g. The feed efficiency in experiment [2] (Table 4, feed consumed to weight gained, control 1.84) worked out at 1.56. Moreover, in experiment [2] (Table 4), the “Increase in feed efficiency” value came to 15.2 and the Increase in weight came to 59.17%.
As for `CC(=O)OC(c1c[n+]([O-])c2ccccc2[n+]1[O-])C(C)[N+](=O)[O-]` (stereo not drawn) [Example P-2242, 2-(1-acetoxy-2-nitropropyl)quinoxaline-1,4-dioxide], in [2] (Table 5, control 165.7), the “Body weight gain, av” value stood at 210.6 g. For the same compound, the feed efficiency in [2] (Table 5, feed consumed to weight gained, control 1.57) stood at 1.48. Besides, in [2] (Table 5), the “Increase in feed efficiency” value amounted to 5.7 and the Increase in weight is on record as 27.1%.
As for `CC(=O)OC(C[N+](=O)[O-])c1c[n+]([O-])c2ccccc2[n+]1[O-]` (stereo not drawn) [Example P-2243, 2-(1-acetoxy-2-nitroethyl)quinoxaline-1,4-dioxide], in [2] (Table 6, control 144.7), the “Body weight gain, av” value stood at 240.5 g. In experiment [2] (Table 6, feed consumed to weight gained, control 1.69), this compound returned a feed efficiency of 1.48. In addition, in experiment [2] (Table 6), the “Increase in feed efficiency” value came out at 12.4 and the Increase in weight was found to be 66.2%.
As to `CCC(C(O)c1c[n+]([O-])c2ccccc2[n+]1[O-])[N+](=O)[O-]` (stereo not drawn) [Example P-2246, 2-(1-hydroxy-2-nitrobutyl)quinoxaline-1,4-dioxide], the “Body weight gain, av” value in experiment [2] (Table 3, control 128.6) was 194.7 g. In experiment [2] (setting [8]), the feed efficiency worked out at 1.54. In [2] (Table 3), the “Increase in feed efficiency” value stood at 15.4 and the Increase in weight turned out to be 51.4%.
Turning to `CC(C)(C(O)c1c[n+]([O-])c2ccccc2[n+]1[O-])[N+](=O)[O-]` (stereo not drawn) [Example P-2265, 2-(1-hydroxy-2-methyl-2-nitropropyl)quinoxaline-1,4-dioxide], the “Body weight gain, av” value in experiment [2] (Table 3, control 128.6) is reported as 188.7 g. This compound also displayed a feed efficiency in [2] (setting [8]) of 1.59. In experiment [2] (Table 3), the “Increase in feed efficiency” value turned out to be 12.6 and the Increase in weight was found to be 46.7%.
For the compound `CCC(C(OC(C)=O)c1c[n+]([O-])c2ccccc2[n+]1[O-])[N+](=O)[O-]` (stereo not drawn) [Example P-2277, 2-(1-acetoxy-2-nitrobutyl)quinoxaline-1,4-dioxide], in experiment [1], the feed efficiency result is reported as “increases the feed efficiency” and the growth rate result is listed as “improves the growth rate”.
As for `CCC(CO)(C(O)c1c[n+]([O-])c2ccccc2[n+]1[O-])[N+](=O)[O-]` (stereo not drawn) [Example P-2280, 2-(1-hydroxy-2-hydroxymethyl-2-nitrobutyl)quinoxaline-1,4-dioxide], the MIC is 50 to 100 µg/mL (≈ 162 to 323 µM) in the experiment on Mycobacterium ranae; 100 to 500 µg/mL (≈ 323 to 1620 µM) against Aspergillus niger; 50 to 100 µg/mL (≈ 162 to 323 µM) in [3]; 500 to 1000 µg/mL (≈ 1620 to 3230 µM) against Aspergillus fumigatus; 500 to 1000 µg/mL (≈ 1620 to 3230 µM) in the experiment on Shigella dysenteriae; 100 to 500 µg/mL (≈ 323 to 1620 µM) in the experiment on Escherichia coli. Also, the MIC lay in the range of 500 to 1000 µg/mL (≈ 1620 to 3230 µM) in experiment [4]; 100 to 500 µg/mL (≈ 323 to 1620 µM) in the experiment on Pencillium sp.; 500 to 1000 µg/mL (≈ 1620 to 3230 µM) with Pseudomonas aeruginosa; 500 to 1000 µg/mL (≈ 1620 to 3230 µM) in the experiment on Staphylococcus aureus; 100 to 500 µg/mL (≈ 323 to 1620 µM) with Candida albicans. For the same compound, the feed efficiency entry in experiment [2] (setting [9]) was “improved efficiency”. For the same compound, the growth rate entry in [2] (setting [9]) is “improved growth rate”.
Take `CC(=O)OC(c1c[n+]([O-])c2ccccc2[n+]1[O-])C(C)(C)[N+](=O)[O-]` (stereo not drawn) [Example P-2284, 2-(1-acetoxy-2-methyl-2-nitropropyl)quinoxaline-1,4-dioxide]: in experiment [1], the feed efficiency result was “increases the feed efficiency” and the growth rate result was “improves the growth rate”.

The values above are taken from patent publication US4303657A, “Nitrohydroxyalkyl-substituted quinoxaxiline dioxides and alkanoic acid esters thereof” (International Minerals & Chemical Corp., priority 1979, dated 1981).
